Measured values taken from patent US9827313B2, “Self-assembled pharmaceutical composition for photodynamic therapy” (SNU R&DB FOUNDATION, priority 2014, dated 2017).

What was measured:
[1] = system: heterogeneous CT26 tumors; test: In vivo PDT in heterogeneous drug-resistant CT26 tumors; set-up: species or system BALB/c nude mice; details: heterogeneous CT26 tumors after PDT
Description: For histology analysis, tumor tissues from control and treated mice were fixed in 10% neutral buffered formalin and frozen sectioned into 5 micron thick slices, stained with hematoxylin & eosin (H&E) and terminal deoxynucleotidyl transferase dUTP nick-end labeling (TUNEL), and were examined by a digital microscope (Leica QWin) and a confocal laser scanning microscope (LSM 510 Meta; Zeiss, Germany).
For in vitro PDT, HCT116 cells (5×10^4/well) were incubated with the materials described above. Photosensitization experiments were then performed by irradiating the cells with a 670-nm laser source (Institute of Electronics) for 2 min. The power at the level of the cells was fixed at 5 mW/cm^2. Cell viability was assessed using the MTT assay. Absorbance intensity was measured at 595 nm using a microplate reader (Bio-Tek, VT, USA). A parallel set of control cells was also used in which cells incubated with the respective materials were not exposed to laser irradiation. […] The tumor size was measured 3 times a week after the first PDT treatment by using a Vernier caliper, and tumor volumes were calculated from width (a) and length (b) measurements (V=a^2×b/2, where a≦b). All mice were killed when the tumor measured 1,000 mm^3, at the first sign of suffering, or between 15 and 21 day post-transplantation.

HCT116 cancer cells = test: pH-dependent cellular uptake (flow cytometry, fluorescence imaging); assay type: cell-based, human; details: HCT116, pH 6.8 vs pH 7.4
Description: HCT116 cells were exposed to PMNs, InS-NPs and Ce6 at different pHs to verify their cellular uptake respectively. The cells were incubated for 2 h, washed, harvested, and re-suspended with DPBS. In vitro cellular uptake was quantified using a flow cytometer (Beckman, San Jose, Calif., USA). For each sample 10,000 cells (gated events) were counted, and free Ce6 fluorescence was detected with logarithmic settings (FL4; λem=670 nm). Cells were counted as positive if their fluorescence (FL4) was higher than that of cells from an untreated cell suspension. Each experiment was analyzed statistically using the CXP Analysis Program.
The tumor cellular uptake of PMNs was monitored at different pH conditions (pH 7.4 and 6.8) using a KODAK In vivo Image Station (Image Station 4000 MM; Kodak, New Haven, Conn., USA) and a flow cytometer (Beckman, San Jose, Calif., USA). HCT116 cells (1×10^5 cells/mL) were incubated with each sample for 2 h in RPMI-1640 medium (pH 7.4 or 6.8, with 1% penicillin-streptomycin) at 37° C. and then analyzed. To ameliorate photobleaching during microscope observation, a drop of anti-fade mounting solution (5% N-propyl gallate, 47.5% glycerol, and 47.5% Tris-HCl, pH 8.4) was added to the cells.

chlorin E6 [Ce6]
damage to tumor tissue cells, microvasculature and fibroblasts (H&E, TUNEL) [1]: no obvious damage
cellular uptake, pH dependence (HCT116 cancer cells): not affected by changes in pH
